Reference: ChEMBL document CHEMBL4359842 (J Med Chem, 2019)
Activity calls are given as the source filed them. The calls are words filed in the database; no cut-off is given here.

How the values were obtained:
Mus musculus [1] = test: Improvement in spatial memory impairment in APPswe/PS1dE9 double mutant-transgenic mouse model assessed as decrease in exploration distance at 15 to 30 mg/kg, ip administered once daily for 12 weeks measured 24 hrs after training trial by morris water maze test; type: functional, organism-based
[2] = Plasma concentration in APPswe/PS1dE9 double mutant-transgenic mouse at 30 mg/kg, ip administered as single dose measured after 24 hrs by LC-MS/MS analysis; type: ADME, organism-based
[3] = AUC in APPswe/PS1dE9 double mutant-transgenic mouse at 3 mg/kg, iv administered as single dose by LC-MS/MS analysis; type: ADME, organism-based; settings: in vivo
Mus musculus [4] = species on record: Mus musculus; settings: 15 to 30 mg/kg
Description: In vivo inhibition of JNK in APPswe/PS1dE9 double mutant-transgenic mouse model assessed as increase in transformation of sAPPbeta to sAPPalpha by measuring reduction in sAPPbeta level at 15 to 30 mg/kg, ip administered once daily for 12 weeks measured post-last dose by Western blot analysis

[5] = biological target: T1, Mitogen-activated protein kinase 10 (Homo sapiens, UniProt P53779); test: Inhibition of recombinant human full-length JNK3 using ATF2 as substrate measured after 40 mins in presence of [gamma33P]ATP by scintillation counting analysis
[6] = Clearance in APPswe/PS1dE9 double mutant-transgenic mouse at 30 mg/kg, ip administered as single dose by LC-MS/MS analysis; type: ADME, organism-based; settings: in vivo
[7] = Bioavailability in APPswe/PS1dE9 double mutant-transgenic mouse at 30 mg/kg, ip administered as single dose by LC-MS/MS analysis; type: ADME, organism-based; settings: in vivo
[8] = Cmax in APPswe/PS1dE9 double mutant-transgenic mouse at 30 mg/kg, ip administered as single dose by LC-MS/MS analysis; type: ADME, organism-based; set-up: dose 30 mg/kg, route intraperitoneal; settings: in vivo
Mus musculus [9] = test: In vivo inhibition of JNK in APPswe/PS1dE9 double mutant-transgenic mouse model assessed as reduction in APP phosphorylation at Thr668 residue in cortex at 30 mg/kg, ip administered once daily for 12 weeks measured post-last dose by Western blot analysis; type: functional, organism-based
[10] = Drug level in APPswe/PS1dE9 double mutant-transgenic mouse brain at 30 mg/kg, ip administered as single dose measured after 0.5 hrs by LC-MS/MS analysis; type: ADME, organism-based; settings: read-out: Drug uptake
[11] = Terminal half life in APPswe/PS1dE9 double mutant-transgenic mouse at 30 mg/kg, ip administered as single dose by LC-MS/MS analysis; type: ADME, organism-based; settings: in vivo, read-out: beta t1/2 (converted)
[12] = biological target: T1, Mitogen-activated protein kinase 10; test: Inhibition of recombinant human full-length JNK3 at 10 uM using ATF2 as substrate measured after 40 mins in presence of [gamma33P]ATP by scintillation counting analysis relative to control
[13] = Plasma concentration in APPswe/PS1dE9 double mutant-transgenic mouse at 30 mg/kg, ip administered as single dose measured after 0.5 hrs by LC-MS/MS analysis; type: ADME, organism-based
Mus musculus [14] = test: Effect on acquisition latency time in APPswe/PS1dE9 double mutant-transgenic mouse model at 15 to 30 mg/kg, ip administered once daily for 12 weeks measured post-last dose by step-through passive avoidance test; type: ADME, organism-based; settings: in vivo, 2016 h
Mus musculus [15] = test: In vivo inhibition of JNK in APPswe/PS1dE9 double mutant-transgenic mouse model assessed as reduction in Tau phosphorylation at Ser235 residue in cortex at 30 mg/kg, ip administered once daily for 12 weeks measured post-last dose by Western blot analysis; type: functional, organism-based
Mus musculus [16] = test: Improvement in spatial memory impairment in APPswe/PS1dE9 double mutant-transgenic mouse model assessed as increase in duration of time spent in target quadrant at 15 to 30 mg/kg, ip administered once daily for 12 weeks measured 24 hrs after training trial by morris water maze test; type: functional, organism-based
[17] = AUC in APPswe/PS1dE9 double mutant-transgenic mouse at 30 mg/kg, ip administered as single dose by LC-MS/MS analysis; type: ADME, organism-based; settings: in vivo
[18] = Plasma concentration in APPswe/PS1dE9 double mutant-transgenic mouse at 30 mg/kg, ip administered as single dose measured after 2 hrs by LC-MS/MS analysis; type: ADME, organism-based
[19] = Mean residence time in APPswe/PS1dE9 double mutant-transgenic mouse at 30 mg/kg, ip administered as single dose by LC-MS/MS analysis; type: ADME, organism-based; settings: in vivo
[20] = Ratio of drug level in APPswe/PS1dE9 double mutant-transgenic mouse brain to plasma at 30 mg/kg, ip administered as single dose measured after 8 hrs by LC-MS/MS analysis; type: ADME, organism-based; settings: read-out: BPR
[21] = biological target: Mitogen-activated protein kinase 9 (Homo sapiens, UniProt P45984); test: Inhibition of human JNK2alpha2 using ATF2 as substrate measured after 40 mins in presence of [gamma33P]ATP by scintillation counting analysis
[22] = Drug level in APPswe/PS1dE9 double mutant-transgenic mouse brain at 30 mg/kg, ip administered as single dose measured after 8 hrs by LC-MS/MS analysis; type: ADME, organism-based; settings: read-out: Drug uptake
Mus musculus [23] = test: Improvement in spatial memory impairment in ip dosed APPswe/PS1dE9 double mutant-transgenic mouse model assessed as decrease in number of diffused plaque in cortex administered once daily for 12 weeks measured post-last dose by thioflavin S staining-based fluorescence microscopic analysis; type: functional, organism-based
Mus musculus [24] = test: Improvement in spatial memory impairment in ip dosed APPswe/PS1dE9 double mutant-transgenic mouse model assessed as decrease in number of fibrillar plaque in hippocampus administered once daily for 12 weeks measured post-last dose by thioflavin S staining-based fluorescence microscopic analysis; type: functional, organism-based

T1 sequence (P53779 whole entry): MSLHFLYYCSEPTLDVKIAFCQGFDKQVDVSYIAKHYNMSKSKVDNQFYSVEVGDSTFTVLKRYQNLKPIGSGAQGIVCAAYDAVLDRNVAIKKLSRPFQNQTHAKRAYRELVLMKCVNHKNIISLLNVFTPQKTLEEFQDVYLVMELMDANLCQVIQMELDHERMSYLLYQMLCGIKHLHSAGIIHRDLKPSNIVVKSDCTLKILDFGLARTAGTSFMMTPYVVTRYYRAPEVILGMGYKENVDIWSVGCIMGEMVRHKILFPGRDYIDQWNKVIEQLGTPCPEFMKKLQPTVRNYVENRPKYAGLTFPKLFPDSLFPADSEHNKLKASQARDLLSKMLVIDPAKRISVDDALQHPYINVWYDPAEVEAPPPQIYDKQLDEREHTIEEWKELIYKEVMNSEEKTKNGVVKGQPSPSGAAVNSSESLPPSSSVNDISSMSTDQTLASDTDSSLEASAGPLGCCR
Chain of Mitogen-activated protein kinase 9 (P45984 whole entry): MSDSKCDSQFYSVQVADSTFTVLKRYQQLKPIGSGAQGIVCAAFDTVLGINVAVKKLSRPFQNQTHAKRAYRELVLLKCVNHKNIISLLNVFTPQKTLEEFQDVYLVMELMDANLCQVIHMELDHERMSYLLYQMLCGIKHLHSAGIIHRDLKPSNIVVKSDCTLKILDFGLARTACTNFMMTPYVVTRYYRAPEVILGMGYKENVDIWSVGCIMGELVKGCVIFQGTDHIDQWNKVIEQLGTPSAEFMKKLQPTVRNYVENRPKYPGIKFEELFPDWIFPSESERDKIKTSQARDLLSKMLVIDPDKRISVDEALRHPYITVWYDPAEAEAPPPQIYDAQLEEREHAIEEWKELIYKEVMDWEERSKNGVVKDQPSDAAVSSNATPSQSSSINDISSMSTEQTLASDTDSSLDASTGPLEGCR

concentration at 24 h [2]: 41 ng/mL
AUC [3]: 2120 ng·h/mL
IC50 [5]: 40 nM
CL/F [6]: 26.5 mL/min/kg
bioavailability [7]: 90.5%
Cmax [8]: 19200 ng/mL
concentration at 0.5 h [10]: 51.4 ng/g
half-life [11]: 16.1 h
inhibition [12]: 99%
concentration at 0.5 h [13]: 20600 ng/mL
AUC [17]: 19200 ng·h/mL
concentration at 2 h [18]: 1200 ng/mL
MRT [19]: 2.78 h
Kp at 8 h [20]: 0.4
IC50 [21]: > 100000 nM
concentration at 8 h [22]: 30.7 ng/g
Structure (SMILES): O=C1N/C(=N/c2ccccc2Cl)S/C1=C1\C(=O)Nc2ccc(F)cc21
Activity (Mus musculus [1]): Active
inhibition (Mus musculus [4]): Active
inhibition (Mus musculus [9]): Active
Activity (Mus musculus [14]): Non-Toxic
inhibition (Mus musculus [15]): Active
Activity (Mus musculus [16]): Active
Activity (Mus musculus [23]): Dose-dependent effect
Activity (Mus musculus [24]): Dose-dependent effect
